# Test results as given in the supplement of paper PMC6045584.
# ± gives the standard deviation of the averaged measurements.
# What was measured:
# [1] = compound: T1, COc1cc2c(Oc3ccc(NC(=O)C4(C(=O)Nc5ccc(F)cc5)CC4)cc3F)ccnc2cc1OCCCN1CCOCC1 [FORETINIB]; experiment: surviving fraction relative to DMSO-only wells; higher = less growth inhibition; details: exposure time: 5 days
# In short: (§1)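 Tumour cell lines in log phase were plated in 384-well plates at 250–500 cells per well, then, after 24 hours, exposed continuously for five days to inhibitors at 0.5, 1, 5, 10, 50, 100, 500 and 1000 nM. Viability came from CellTiter-Glo luminescence, and surviving fraction is that signal normalised to the median of DMSO-only wells. Plates were read after 10 minutes at room temperature, and each line, screened three times, was kept only when replicate Pearson r was >0.7 and median Z' was >0.3.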
# [2] = compound: T2, Cc1nc(Nc2ncc(C(=O)Nc3c(C)cccc3Cl)s2)cc(N2CCN(CCO)CC2)n1 [DASATINIB]; experiment: as above; details: exposure time: 5 days
# In short: as §1
# [3] = compound: CNCc1ccc(-c2[nH]c3cc(F)cc4c3c2CCNC4=O)cc1; experiment: as above; details: exposure time: 5 days
# In short: as §1
# [4] = compound: T3, C[C@@H](Oc1cc(-c2cnn(C3CCNCC3)c2)cnc1N)c1c(Cl)ccc(F)c1Cl [CRIZOTINIB]; experiment: as above; details: exposure time: 5 days
# In short: as §1
# [5] = compound: T4, NS(=O)(=O)OC[C@@H]1C[C@@H](n2ccc3c(N[C@H]4CCc5ccccc54)ncnc32)C[C@@H]1O [MLN-4924]; experiment: as above; details: exposure time: 5 days
# In short: as §1
# [6] = compound: T5, Cn1nnc2c(C(N)=O)ncn2c1=O [TEMOZOLOMIDE]; experiment: as above; details: exposure time: 5 days
# In short: as §1
# [7] = compound: T6, CN1CCN(c2nc(C3=C(c4c[nH]c5ccccc45)C(=O)NC3=O)c3ccccc3n2)CC1 [SOTRASTAURIN/AEB071]; experiment: as above; details: exposure time: 5 days
# In short: as §1
# [8] = compound: T1, FORETINIB; experiment: area under dose-response curve of surviving fraction (unscaled, Aref=0) (surviving fraction x log10(nM)); higher = more resistant; details: exposure time: 5 days; dose range 0.5-1000 nM
# In short: (§2)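 Three screens per tumour cell line were run in 384-well plates at eight inhibitor concentrations from 0.5 to 1000 nM over five days. Surviving fractions, from CellTiter-Glo luminescence normalised to DMSO-only wells, were fitted with 3-parameter logistic curves in the drc R package. The reported area under the curve is the unscaled activity area. It spans log10 dose, and Aref is 0.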
# [9] = compound: T2, DASATINIB; experiment: as above; details: exposure time: 5 days; dose range 0.5-1000 nM
# In short: as §2
# [10] = compound: CNCc1ccc(-c2[nH]c3cc(F)cc4c3c2CCNC4=O)cc1; experiment: as above; details: exposure time: 5 days; dose range 0.5-1000 nM
# In short: as §2
# [11] = compound: T3, CRIZOTINIB; experiment: as above; details: exposure time: 5 days; dose range 0.5-1000 nM
# In short: as §2
# [12] = compound: T4, MLN-4924; experiment: as above; details: exposure time: 5 days; dose range 0.5-1000 nM
# In short: as §2
# [13] = compound: T5, TEMOZOLOMIDE; experiment: as above; details: exposure time: 5 days; dose range 0.5-1000 nM
# In short: as §2
# [14] = compound: T6, SOTRASTAURIN/AEB071; experiment: as above; details: exposure time: 5 days; dose range 0.5-1000 nM
# In short: as §2
test system,measurement,setting,value
CCK81 LARGE INTESTINE,surviving fraction,[1]; 0.5 nM,0.867 ± 0.085
same,surviving fraction,[1]; 1 nM,0.729 ± 0.084
same,surviving fraction,[1]; 5 nM,0.719 ± 0.059
same,surviving fraction,[1]; 10 nM,0.726 ± 0.13
same,surviving fraction,[1]; 50 nM,0.793 ± 0.065
same,surviving fraction,[1]; 100 nM,0.757 ± 0.025
same,surviving fraction,[1]; 500 nM,0.559 ± 0.043
same,surviving fraction,[1]; 1000 nM,0.338 ± 0.083
same,surviving fraction,[2]; 0.5 nM,0.942 ± 0.19
same,surviving fraction,[2]; 1 nM,0.774 ± 0.035
same,surviving fraction,[2]; 5 nM,0.741 ± 0.13
same,surviving fraction,[2]; 10 nM,0.744 ± 0.059
same,surviving fraction,[2]; 50 nM,0.577 ± 0.1
same,surviving fraction,[2]; 100 nM,0.411 ± 0.1
same,surviving fraction,[2]; 500 nM,0.0847 ± 0.02
same,surviving fraction,[2]; 1000 nM,0.0473 ± 0.012
same,surviving fraction,[3]; 0.5 nM,0.829 ± 0.06
same,surviving fraction,[3]; 1 nM,0.766 ± 0.13
same,surviving fraction,[3]; 5 nM,0.861 ± 0.24
same,surviving fraction,[3]; 10 nM,0.719 ± 0.12
same,surviving fraction,[3]; 50 nM,0.789 ± 0.041
same,surviving fraction,[3]; 100 nM,0.803 ± 0.058
same,surviving fraction,[3]; 500 nM,0.914 ± 0.053
same,surviving fraction,[3]; 1000 nM,0.783 ± 0.023
same,surviving fraction,[4]; 1 nM,0.854 ± 0.084
same,surviving fraction,[4]; 5 nM,0.776 ± 0.15
same,surviving fraction,[4]; 10 nM,0.788 ± 0.087
same,surviving fraction,[4]; 50 nM,0.749 ± 0.11
same,surviving fraction,[4]; 100 nM,0.718 ± 0.028
same,surviving fraction,[4]; 500 nM,0.62 ± 0.12
same,surviving fraction,[4]; 1000 nM,0.315 ± 0.053
same,surviving fraction,[5]; 0.5 nM,0.87 ± 0.11
same,surviving fraction,[5]; 1 nM,0.814 ± 0.12
same,surviving fraction,[5]; 5 nM,0.704 ± 0.15
same,surviving fraction,[5]; 10 nM,0.794 ± 0.088
same,surviving fraction,[5]; 50 nM,0.867 ± 0.07
same,surviving fraction,[5]; 100 nM,0.831 ± 0.059
same,surviving fraction,[5]; 500 nM,0.567 ± 0.066
same,surviving fraction,[5]; 1000 nM,0.473 ± 0.065
same,surviving fraction,[6]; 0.5 nM,0.766 ± 0.075
same,surviving fraction,[6]; 1 nM,0.729 ± 0.06
same,surviving fraction,[6]; 5 nM,0.744 ± 0.041
same,surviving fraction,[6]; 10 nM,0.771 ± 0.024
same,surviving fraction,[6]; 50 nM,0.775 ± 0.083
same,surviving fraction,[6]; 100 nM,0.745 ± 0.048
same,surviving fraction,[6]; 500 nM,0.789 ± 0.033
same,surviving fraction,[6]; 1000 nM,0.817 ± 0.055
same,surviving fraction,[7]; 0.5 nM,0.811 ± 0.12
same,surviving fraction,[7]; 1 nM,0.829 ± 0.13
same,surviving fraction,[7]; 5 nM,0.892 ± 0.075
same,surviving fraction,[7]; 10 nM,0.814 ± 0.079
same,surviving fraction,[7]; 50 nM,0.917 ± 0.0085
same,surviving fraction,[7]; 100 nM,0.866 ± 0.038
same,surviving fraction,[7]; 500 nM,0.943 ± 0.088
same,surviving fraction,[7]; 1000 nM,0.83 ± 0.064
same,area under dose-response curve,[8],2.29
same,area under dose-response curve,[9],1.86
same,area under dose-response curve,[10],2.66
same,area under dose-response curve,[11],2.36
same,area under dose-response curve,[12],2.47
same,area under dose-response curve,[13],2.52
same,area under dose-response curve,[14],2.85
